From US4442044A, “Process for preparing monoesters and diesters of N-alkyl substituted amino methyl phosphonic acid” (priority 1983, dated 1984)

Legend:
Test in all cases: post-emergent herbicidal activity, greenhouse
Type in all cases: in vivo
Quackgrass = settings: Table I, 4 WAT
Outline: (§1)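 Post-emergence foliar spray at tabulated application rates, using aliquots of a 1.0% stock in acetone, THF or water plus ~0.4% emulsifier, applied to 2–3-week-old greenhouse plants. Plant injury was rated relative to controls roughly two and four weeks after treatment.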

Crabgrass = settings: Table II
Outline: as §1

Soybean = settings: Table II
Outline: as §1

Barnyardgrass = test system: Barnyardgrass
Outline: as §1

Wild Buckwheat = settings: Table II
Outline: as §1

Rice = settings: Table II
Outline: as §1

Velvetleaf = test system: Velvetleaf
Outline: as §1

Lambsquarters = test system: Lambsquarters
Outline: as §1

Yellow Nutsedge = settings: Table I, 4 WAT
Outline: as §1

Downy Brome = test system: Downy Brome
Outline: as §1

Canada Thistle = settings: Table I, 4 WAT
Outline: as §1

Morningglory = test system: Morningglory
Outline: as §1

Smartweed = test system: Smartweed
Outline: as §1

Johnsongrass = settings: Table I, 4 WAT
Outline: as §1

Cocklebur = test system: Cocklebur
Outline: as §1

Panicum Spp = settings: Table II
Outline: as §1

Hemp Sesbania = settings: Table II
Outline: as §1

Wheat = settings: Table II
Outline: as §1

Sugar Beet = settings: Table II
Outline: as §1

Sorghum = settings: Table II
Outline: as §1

CC(C#N)OP(=O)(O)CNCC(=O)OCc1ccccc1 (stereo not shown) [Example 10, glycine, N-[[(1-cyanoethoxy)hydroxyphosphinyl]methyl]-,phenylmethyl ester]
post-emergent herbicidal activity index (Quackgrass; 5.6 kg/h): 2 (50-74% control) | post-emergent herbicidal activity index (Quackgrass; 11.2 kg/h): 2 (50-74% control) | post-emergent herbicidal activity index (Crabgrass; 2 WAT, 0.011 kg/h): 0 (0-24% control) | post-emergent herbicidal activity index (Crabgrass; 2 WAT, 0.056 kg/h): 1 (25-49% control) | post-emergent herbicidal activity index (Crabgrass; 4 WAT, 0.28 kg/h): 4 (100% control) | post-emergent herbicidal activity index (Crabgrass; 4 WAT, 1.12 kg/h): 4 (100% control) | post-emergent herbicidal activity index (Crabgrass; 4 WAT, 5.6 kg/h): 4 (100% control) | post-emergent herbicidal activity index (Soybean; 2 WAT, 0.011 kg/h): 0 (0-24% control) | post-emergent herbicidal activity index (Soybean; 2 WAT, 0.056 kg/h): 1 (25-49% control) | post-emergent herbicidal activity index (Soybean; 4 WAT, 0.28 kg/h): 1 (25-49% control) | post-emergent herbicidal activity index (Soybean; 4 WAT, 1.12 kg/h): 1 (25-49% control) | post-emergent herbicidal activity index (Soybean; 4 WAT, 5.6 kg/h): 3 (75-99% control) | post-emergent herbicidal activity index (Barnyardgrass; Table I, 4 WAT, 5.6 kg/h): 2 (50-74% control) | post-emergent herbicidal activity index (Barnyardgrass; Table I, 4 WAT, 11.2 kg/h): 3 (75-99% control) | post-emergent herbicidal activity index (Barnyardgrass; Table II, 2 WAT, 0.011 kg/h): 0 (0-24% control) | post-emergent herbicidal activity index (Barnyardgrass; Table II, 2 WAT, 0.056 kg/h): 0 (0-24% control) | post-emergent herbicidal activity index (Barnyardgrass; Table II, 4 WAT, 0.28 kg/h): 2 (50-74% control) | post-emergent herbicidal activity index (Barnyardgrass; Table II, 4 WAT, 1.12 kg/h): 2 (50-74% control) | post-emergent herbicidal activity index (Barnyardgrass; Table II, 4 WAT, 5.6 kg/h): 3 (75-99% control) | post-emergent herbicidal activity index (Wild Buckwheat; 2 WAT, 0.011 kg/h): 0 (0-24% control) | post-emergent herbicidal activity index (Wild Buckwheat; 2 WAT, 0.056 kg/h): 0 (0-24% control) | post-emergent herbicidal activity index (Wild Buckwheat; 4 WAT, 0.28 kg/h): 1 (25-49% control) | post-emergent herbicidal activity index (Wild Buckwheat; 4 WAT, 1.12 kg/h): 2 (50-74% control) | post-emergent herbicidal activity index (Wild Buckwheat; 4 WAT, 5.6 kg/h): 3 (75-99% control) | post-emergent herbicidal activity index (Rice; 2 WAT, 0.011 kg/h): 0 (0-24% control) | post-emergent herbicidal activity index (Rice; 2 WAT, 0.056 kg/h): 0 (0-24% control) | post-emergent herbicidal activity index (Rice; 4 WAT, 0.28 kg/h): 0 (0-24% control) | post-emergent herbicidal activity index (Rice; 4 WAT, 1.12 kg/h): 1 (25-49% control) | post-emergent herbicidal activity index (Rice; 4 WAT, 5.6 kg/h): 2 (50-74% control) | post-emergent herbicidal activity index (Velvetleaf; Table I, 4 WAT, 5.6 kg/h): 3 (75-99% control) | post-emergent herbicidal activity index (Velvetleaf; Table I, 4 WAT, 11.2 kg/h): 3 (75-99% control) | post-emergent herbicidal activity index (Velvetleaf; Table II, 2 WAT, 0.011 kg/h): 0 (0-24% control) | post-emergent herbicidal activity index (Velvetleaf; Table II, 2 WAT, 0.056 kg/h): 0 (0-24% control) | post-emergent herbicidal activity index (Velvetleaf; Table II, 4 WAT, 0.28 kg/h): 1 (25-49% control) | post-emergent herbicidal activity index (Velvetleaf; Table II, 4 WAT, 1.12 kg/h): 1 (25-49% control) | post-emergent herbicidal activity index (Velvetleaf; Table II, 4 WAT, 5.6 kg/h): 1 (25-49% control) | post-emergent herbicidal activity index (Lambsquarters; Table I, 4 WAT, 5.6 kg/h): 3 (75-99% control) | post-emergent herbicidal activity index (Lambsquarters; Table I, 4 WAT, 11.2 kg/h): 3 (75-99% control) | post-emergent herbicidal activity index (Lambsquarters; Table II, 2 WAT, 0.011 kg/h): 0 (0-24% control) | post-emergent herbicidal activity index (Lambsquarters; Table II, 2 WAT, 0.056 kg/h): 1 (25-49% control) | post-emergent herbicidal activity index (Lambsquarters; Table II, 4 WAT, 0.28 kg/h): 2 (50-74% control) | post-emergent herbicidal activity index (Lambsquarters; Table II, 4 WAT, 1.12 kg/h): 3 (75-99% control) | post-emergent herbicidal activity index (Lambsquarters; Table II, 4 WAT, 5.6 kg/h): 3 (75-99% control) | post-emergent herbicidal activity index (Yellow Nutsedge; 5.6 kg/h): 1 (25-49% control) | post-emergent herbicidal activity index (Yellow Nutsedge; 11.2 kg/h): 1 (25-49% control) | post-emergent herbicidal activity index (Downy Brome; Table I, 4 WAT, 5.6 kg/h): 2 (50-74% control) | post-emergent herbicidal activity index (Downy Brome; Table I, 4 WAT, 11.2 kg/h): 1 (25-49% control) | post-emergent herbicidal activity index (Downy Brome; Table II, 2 WAT, 0.011 kg/h): 0 (0-24% control) | post-emergent herbicidal activity index (Downy Brome; Table II, 2 WAT, 0.056 kg/h): 0 (0-24% control) | post-emergent herbicidal activity index (Downy Brome; Table II, 4 WAT, 0.28 kg/h): 1 (25-49% control) | post-emergent herbicidal activity index (Downy Brome; Table II, 4 WAT, 1.12 kg/h): 2 (50-74% control) | post-emergent herbicidal activity index (Downy Brome; Table II, 4 WAT, 5.6 kg/h): 2 (50-74% control) | post-emergent herbicidal activity index (Canada Thistle; 5.6 kg/h): 1 (25-49% control) | post-emergent herbicidal activity index (Canada Thistle; 11.2 kg/h): 2 (50-74% control) | post-emergent herbicidal activity index (Morningglory; Table I, 4 WAT, 5.6 kg/h): 2 (50-74% control) | post-emergent herbicidal activity index (Morningglory; Table I, 4 WAT, 11.2 kg/h): 2 (50-74% control) | post-emergent herbicidal activity index (Morningglory; Table II, 2 WAT, 0.011 kg/h): 0 (0-24% control) | post-emergent herbicidal activity index (Morningglory; Table II, 2 WAT, 0.056 kg/h): 0 (0-24% control) | post-emergent herbicidal activity index (Morningglory; Table II, 4 WAT, 0.28 kg/h): 2 (50-74% control) | post-emergent herbicidal activity index (Morningglory; Table II, 4 WAT, 1.12 kg/h): 2 (50-74% control) | post-emergent herbicidal activity index (Morningglory; Table II, 4 WAT, 5.6 kg/h): 2 (50-74% control) | post-emergent herbicidal activity index (Smartweed; Table I, 4 WAT, 11.2 kg/h): 4 (100% control) | post-emergent herbicidal activity index (Smartweed; Table II, 2 WAT, 0.011 kg/h): 0 (0-24% control) | post-emergent herbicidal activity index (Smartweed; Table II, 2 WAT, 0.056 kg/h): 0 (0-24% control) | post-emergent herbicidal activity index (Smartweed; Table II, 4 WAT, 0.28 kg/h): 4 (100% control) | post-emergent herbicidal activity index (Smartweed; Table II, 4 WAT, 1.12 kg/h): 4 (100% control) | post-emergent herbicidal activity index (Smartweed; Table II, 4 WAT, 5.6 kg/h): 4 (100% control) | post-emergent herbicidal activity index (Johnsongrass; 5.6 kg/h): 0 (0-24% control) | post-emergent herbicidal activity index (Johnsongrass; 11.2 kg/h): 1 (25-49% control) | post-emergent herbicidal activity index (Cocklebur; Table I, 4 WAT, 5.6 kg/h): 2 (50-74% control) | post-emergent herbicidal activity index (Cocklebur; Table I, 4 WAT, 11.2 kg/h): 2 (50-74% control) | post-emergent herbicidal activity index (Cocklebur; Table II, 2 WAT, 0.011 kg/h): 0 (0-24% control) | post-emergent herbicidal activity index (Cocklebur; Table II, 2 WAT, 0.056 kg/h): 0 (0-24% control) | post-emergent herbicidal activity index (Cocklebur; Table II, 4 WAT, 0.28 kg/h): 1 (25-49% control) | post-emergent herbicidal activity index (Cocklebur; Table II, 4 WAT, 1.12 kg/h): 2 (50-74% control) | post-emergent herbicidal activity index (Cocklebur; Table II, 4 WAT, 5.6 kg/h): 3 (75-99% control) | post-emergent herbicidal activity index (Panicum Spp; 2 WAT, 0.011 kg/h): 0 (0-24% control) | post-emergent herbicidal activity index (Panicum Spp; 2 WAT, 0.056 kg/h): 0 (0-24% control) | post-emergent herbicidal activity index (Panicum Spp; 4 WAT, 0.28 kg/h): 3 (75-99% control) | post-emergent herbicidal activity index (Panicum Spp; 4 WAT, 1.12 kg/h): 4 (100% control) | post-emergent herbicidal activity index (Panicum Spp; 4 WAT, 5.6 kg/h): 4 (100% control) | post-emergent herbicidal activity index (Hemp Sesbania; 2 WAT, 0.011 kg/h): 0 (0-24% control) | post-emergent herbicidal activity index (Hemp Sesbania; 2 WAT, 0.056 kg/h): 0 (0-24% control) | post-emergent herbicidal activity index (Hemp Sesbania; 4 WAT, 1.12 kg/h): 1 (25-49% control) | post-emergent herbicidal activity index (Hemp Sesbania; 4 WAT, 5.6 kg/h): 1 (25-49% control) | post-emergent herbicidal activity index (Wheat; 2 WAT, 0.011 kg/h): 0 (0-24% control) | post-emergent herbicidal activity index (Wheat; 2 WAT, 0.056 kg/h): 0 (0-24% control) | post-emergent herbicidal activity index (Wheat; 4 WAT, 0.28 kg/h): 1 (25-49% control) | post-emergent herbicidal activity index (Wheat; 4 WAT, 1.12 kg/h): 2 (50-74% control) | post-emergent herbicidal activity index (Wheat; 4 WAT, 5.6 kg/h): 2 (50-74% control) | post-emergent herbicidal activity index (Sugar Beet; 2 WAT, 0.011 kg/h): 0 (0-24% control) | post-emergent herbicidal activity index (Sugar Beet; 2 WAT, 0.056 kg/h): 0 (0-24% control) | post-emergent herbicidal activity index (Sugar Beet; 4 WAT, 0.28 kg/h): 3 (75-99% control) | post-emergent herbicidal activity index (Sugar Beet; 4 WAT, 1.12 kg/h): 2 (50-74% control) | post-emergent herbicidal activity index (Sugar Beet; 4 WAT, 5.6 kg/h): 3 (75-99% control) | post-emergent herbicidal activity index (Sorghum; 2 WAT, 0.011 kg/h): 0 (0-24% control) | post-emergent herbicidal activity index (Sorghum; 2 WAT, 0.056 kg/h): 0 (0-24% control) | post-emergent herbicidal activity index (Sorghum; 4 WAT, 0.28 kg/h): 2 (50-74% control) | post-emergent herbicidal activity index (Sorghum; 4 WAT, 1.12 kg/h): 2 (50-74% control) | post-emergent herbicidal activity index (Sorghum; 4 WAT, 5.6 kg/h): 3 (75-99% control)
